Assay results as given in patent publication US20080058405A1, “REPLICATING MELATONIN SIGNALING IN A FETUS, NEWBORN OR SUCKLING INFANT” (OREGON HEALTH & SCIENCE UNIVERSITY, priority 2006, published 2008).
“Also recorded” adds a separate entry of the source.

Legend:
newborn infant = test: Manipulation of the sleep/wake circadian rhythm of a newborn infant by exogenous melatonin given orally to the nursing mother (suckled or pumped breast milk); format: in vivo, human
Method: The following log includes nighttime sleep data of the infant taking nothing else by mouth except thrush medication during about weeks 2-4. […] All melatonin used in this Example was an immediate-release formulation taken by the […] orally.
• Sunday (10 days post-partum, first day of exogenous melatonin administration in breast milk): • At 20:50 […] took 3 mg melatonin orally. At 21:20 breast-fed baby. […] Monday: • At 19:45, […] took 1.05 mg. […] Tuesday: • At 20:30, […] took 0.9 mg and fed at 9. […] Wednesday: • At 20:45, […] took 3 mg. […] Thursday. • […] took 3 mg at 20:45. […] Week 2 Sunday. • […] took 3 mg at 20:30 but ate immediately after. […] Tuesday: • […] took 3 mg at 20:30. […] Wednesday • […] took 3 mg at 20:30. […] Friday • […] took 3 mg at 20:30. […] Saturday: • […] took 3 mg at 20:30. […] Week 3 Sunday: • […] took 3 mg at 15:00. […] Monday • […] took 3 mg at 17:20. […] Tuesday: • […] took 3 mg at 17:00. […] Wednesday: • […] took 1.8 mg at 17:45. […] Thursday: • […] took 3 mg at 17:00. […] Friday: • […] took 3 mg at 20:30. […] Saturday: • […] took 2 mg at 19:15.

[1] = adults, orally-administered melatonin; cited from earlier work
[2] = same maternal dosing, infant fed by breast milk

## COc1ccc2[nH]cc(CCNC(C)=O)c2c1 [melatonin, N-acetyl-5-methoxytryptamine]
Newborn infant; 10 days post-partum, mother took 3 mg orally at 20:50, baby breast-fed at 21:20
  infant sleep period after first feeding with exogenous melatonin in breast milk: slept between 22:00 and 04:00
Newborn infant; Week 5 Monday, parent took 3 mg at 17:00
  improvement of colic versus its worst: about 40%
Newborn infant; parent took 1.8-12 mg (usually 3 mg) in the evening, sometimes 1-2 mg in the middle of the night or 0.5 mg towards end of night, immediate-release, oral, infant fed by suckling or pumped breast milk
  sleep of mother and newborn: better sleep for both mother and newborn
Newborn infant; [2]
  actual breast-feeding time during the night: no reduction
  development of the infant's independent ability to synchronize to the ambient light/dark cycle: appeared to accelerate development; also recorded: caused early synchronization
  evening/nighttime colic in the infant: less evening/nighttime colic
  weight gain in the baby: steady weight gain; also recorded: excellent on melatonin, better than before melatonin
[1]
  melatonin bioavailability: 1-15%
